Assay results from US9371333B2, “Chromene derivatives and their analoga as Wnt pathway antagonists” (Deutsches Krebsforschungszentrum, priority 2010, dated 2016).

Assays:
Format in all cases: cell-based
Hek293T = assay: Cytotoxicity in Hek293T (CellTiterGlo); conditions: Homo sapiens, HEK-293T, 24 h after compound addition
Method: (§1) For examination of cytotoxicity in these cancer cell lines the commercial available CellTiterGlo® Reagent (Promega, USA) was used according to the manufactor.
(§2) Compounds were applied to Hek293T (denoted (a)) or HepG2 (denoted (b)), cultured in Dulbecco's Modified Eagles Medium, supplemented with 10% fetal calf serum and 1% penicillin/streptomycin. Cells were grown in T75 flasks at 37° C., 5% CO2 and trypsinized when 60-80% confluent by adding 2 ml of 0.25% Trypsin-EDTA solution. Cells were then re-suspended into culture medium yielding approx. 4000 cells (a) or 4500 cells (b), suspended in 30 microl medium. 48 h after cell seeding, compounds were added to yield the desired final concentrations. 24 h after compound addition cytotoxicity was evaluated. For this purpose the media was removed and CellTiterGlo® was added according to the manufactors manual. In this assay the luciferase emission readout is directly correlated with the cellular amount of ATP, low luciferase emission thus is reflecting cytotoxicity of a compound.

HepG2 = assay: Cytotoxicity in HepG2 (CellTiterGlo); conditions: Homo sapiens, 24 h after compound addition
Method: as §1, §2

[1] = tested on: human fibroblasts (HS-68); assay: Cell line specific cytotoxicity, normal cells HS68 (nuclei count); conditions: Hoechst labeled nuclei count, at least 72 hr
Method: For examination of cell line-specific cytotoxicity, compounds were applied to human colorectal cancer cells (HCT116, denoted (1); SW480, denoted (2); Dld-1, denoted (3)) and human fibroblasts (HS-68, denoted (4)), cultured in Mc Coy's ((1)) and Dulbecco's Modified Eagles Medium ((2)-(4)), supplemented with 10% ((1)-(3)) and 20% ((4)) fetal calf serum and 1% penicillin/streptomycin. Cells were grown in T75 flasks at 37° C., 5% CO2 and trypsinized when 60-80% confluent by adding 2 ml of 0.25% Trypsin-EDTA (ethylenediaminetetraacetic acid) solution. Cells were then re-suspended into culture medium yielding approx. 750 cells, suspended in 45 microl medium, were plated into each well of a black 384-well plate for fluorescence imaging experiments. […] Compound incubation was terminated by (a) fixation and (b) permeabilisation of cells, followed by (c) fluorescence labeling of cell nuclei for cytometric quantification or by immunocytochemistry for microscopic evaluation of cell morphology. […]
Cell line-specific cytotoxicity was quantified by counting the number of Hoechst labeled nuclei per well of a 384-well plate using a plate cytometer. Data obtained with the cytometer was analysed using standard data analysis software.
Identified hits were further evaluated by visual inspection of fluorescence micrographs obtained from imaging using a conventional fluorescence microscope.

N#CC1=C(N)Oc2cc3ccccc3cc2C1c1cc(F)c(N2CCCCC2)c(F)c1 (stereo not drawn) [(29), 2-amino-4-(3,5-difluoro-4-piperidin-1-yl-phenyl)-4H-benzo[g]chromene-3-carbonitrile]
IC50 (Hek293T): > 90 µM | IC50 (HepG2): 42.5 µM

COc1cc(C2C(C#N)=C(N(C)C)Oc3cc4ccccc4cc32)cc(Br)c1OC (stereo not drawn) [(31), 2-Dimethylamino-4-(3-bromo-4,5-dimethoxy-phenyl)-4H-benzo[g]chromene-3-carbonitrile]
IC50 (Hek293T): > 90 µM | IC50 (HepG2): > 90 µM

COc1cc(C2C(C#N)=C(N)Oc3c2ccc2ccc(O)nc32)cc(Br)c1OC (stereo not drawn) [(19), 3-Amino-1-(3-bromo-4,5-dimethoxy-phenyl)-6-hydroxy-1H-4-oxa-5-aza-phenanthrene-2-carbonitrile]
IC50 (Hek293T): > 90 µM | IC50 (HepG2): > 90 µM

CCOC(=O)C1=C(N)Oc2cc3c(cc2C1c1cc(F)c(F)c(F)c1)OCO3 (stereo not drawn) [(40), 6-Amino-8-(3,4,5-trifluoro-phenyl)-8H-[1,3]dioxolo[4,5-g]chromene-7-carboxylic acid ethyl ester]
IC50 (Hek293T): > 90 µM | IC50 (HepG2): > 90 µM

COc1cc(C2C(C#N)=C(N)Oc3c2ccc2ccc(C)nc32)cc(Br)c1OC (stereo not drawn) [(16), 3-Amino-1-(3-bromo-4,5-dimethoxy-phenyl)-6-methyl-1H-4-oxa-5-aza-phenanthrene-2-carbonitrile]
IC50 (Hek293T): > 90 µM | IC50 (HepG2): > 90 µM

N#CC1=C(N)Oc2cc3ccccc3cc2C1c1cc(F)c(F)c(F)c1 (stereo not drawn) [(28), 2-amino-4-(3,4,5-trifluoro-phenyl)-4H-benzo[g]chromene-3-carbonitrile]
IC50 (Hek293T): > 90 µM | IC50 (HepG2): 31.7 µM

COc1cc(C2C(C#N)=C(N)Oc3c2c(O)nc2ccccc32)cc(Br)c1OC (stereo not drawn) [(17), 2-Amino-4-(3-bromo-4,5-dimethoxy-phenyl)-5-hydroxy-4H-pyrano[3,2-c]quinoline-3-carbonitrile]
IC50 (Hek293T): > 90 µM | IC50 (HepG2): > 90 µM | IC50 [1]: > 90 µM

C=CCOc1c(Br)cc(C2C(C(=O)OCC)=C(N)Oc3cc4c(cc32)OCO4)cc1OC (stereo not drawn) [(42), 8-(4-Allyloxy-3-bromo-5-methoxy-phenyl)-6-amino-8H-[1,3]dioxolo[4,5-g]chromene-7-carboxylic acid ethyl ester]
IC50 (Hek293T): > 90 µM | IC50 (HepG2): > 90 µM

COc1cc(C2C(C#N)=C(N)Oc3c2ccc2ccc(N)nc32)cc(Br)c1OC (racemic) [(20), 3,6-Diamino-1-(3-bromo-4,5-dimethoxy-phenyl)-1H-4-oxa-5-aza-phenanthrene-2-carbonitrile]
IC50 (Hek293T): > 90 µM | IC50 (HepG2): 37 µM

C=CCOc1c(Br)cc(C2C(C#N)=C(N)Oc3cc4c(cc32)OCO4)cc1OC (stereo not drawn) [(41), 8-(4-Allyloxy-3-bromo-5-methoxy-phenyl)-6-amino-8H-[1,3]dioxolo[4,5-g]chromene-7-carbonitrile]
IC50 (Hek293T): > 90 µM | IC50 (HepG2): > 90 µM

CCOC(=O)C1=C(N)Oc2c(ccc3ccccc23)C1c1cc(Br)c(OC)c(OC)c1 (stereo not drawn) [(6), 2-Amino-4-(3-bromo-4,5-dimethoxy-phenyl)-4H-benzo[h]chromene-3-carboxylic acid ethyl ester]
IC50 (Hek293T): > 90 µM | IC50 (HepG2): > 90 µM

COc1cc(C2C(C#N)=C(N)Oc3c2ccc2ncccc32)cc(Br)c1OC (stereo not drawn) [(18), 6-Amino-8-(3-bromo-4,5-dimethoxy-phenyl)-8H-5-oxa-1-aza-phenanthrene-7-carbonitrile]
IC50 (Hek293T): > 90 µM | IC50 (HepG2): > 90 µM

COc1cc(C2C(C#N)=C(N)Oc3c2ccc2ccccc32)cc(Br)c1OC (stereo not drawn) [(1), 2-Amino-4-(3-bromo-4,5-dimethoxy-phenyl)-4H-benzo[h]chromene-3-carbonitrile]
IC50 (Hek293T): > 90 µM | IC50 (HepG2): > 90 µM

COc1cc(C2C(C#N)=C(N)Oc3cc4ccccc4cc32)cc(Br)c1OC (stereo not drawn) [(30), 2-Amino-4-(3-bromo-4,5-dimethoxy-phenyl)-4H-benzo[g]chromene-3-carbonitrile]
IC50 (Hek293T): > 90 µM | IC50 (HepG2): > 90 µM

C=CCOc1c(Br)cc(C2C(C(=O)OCC)=C(N)Oc3c2ccc2ccccc32)cc1OC (stereo not drawn) [(4), 4-(4-Allyloxy-3-bromo-5-methoxy-phenyl)-2-amino-4H-benzo[h]chromene-3-carboxylic acid ethyl ester]
IC50 (Hek293T): > 90 µM | IC50 (HepG2): > 90 µM

N#CC1=C(N)Oc2c(ccc3ccccc23)C1c1cc(F)c(F)c(F)c1 (stereo not drawn) [(7), 2-Amino-4-(3,4,5-trifluoro-phenyl)-4H-benzo[h]chromene-3-carbonitrile]
IC50 (Hek293T): > 90 µM | IC50 (HepG2): > 90 µM

N#CC1=C(N)Oc2cc3c(cc2C1c1cc(F)c(F)c(F)c1)OCO3 (stereo not drawn) [(39), 6-Amino-8-(3,4,5-trifluoro-phenyl)-8H-[1,3]dioxolo[4,5-g]chromene-7-carbonitrile]
IC50 (Hek293T): > 90 µM | IC50 (HepG2): > 90 µM | IC50 [1]: > 90 µM
